Experimental data reported in patent publication US8129371B2, “Thienopyrimidine and pyrazolopyrimidine compounds and their use as mTOR kinase and PI3 kinase inhibitors” (Wyeth LLC, priority 2007, dated 2012).

Experiments:
[1] = system: breast line MDA468; test: In vitro cell culture growth assay (MTS), MDA468; assay type: cell-based; conditions: Homo sapiens, 72 h, MDA468 cells, three days after drug treatment
How it was run: (§1)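 Cells were plated and, one day later, treated with inhibitors. Three days after treatment, viable cell density was measured by MTS dye conversion, read as absorbance at 490 nm. Effects are expressed as percent of control growth versus vehicle-treated cells on the same plate.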

[2] = system: prostate line LNCap; test: In vitro cell culture growth assay (MTS), LNCap; assay type: cell-based; conditions: Homo sapiens, LNCaP, 72 h, LNCap cells, three days after drug treatment
How it was run: as §1

[3] = target: T1, PI3K (Homo sapiens, UniProt P42336); test: Fluorescence polarization assay for PI3K; assay type: biochemical; conditions: PI3 Kinase α; read-out: PI3 Kinase α IC50
T1 construct: PI3 Kinase α IC50; other: PI3 Kinase α; other: PI3 Kinase α isoform, fluorescence polarization
T1 sequence (P42336 whole entry, canonical isoform): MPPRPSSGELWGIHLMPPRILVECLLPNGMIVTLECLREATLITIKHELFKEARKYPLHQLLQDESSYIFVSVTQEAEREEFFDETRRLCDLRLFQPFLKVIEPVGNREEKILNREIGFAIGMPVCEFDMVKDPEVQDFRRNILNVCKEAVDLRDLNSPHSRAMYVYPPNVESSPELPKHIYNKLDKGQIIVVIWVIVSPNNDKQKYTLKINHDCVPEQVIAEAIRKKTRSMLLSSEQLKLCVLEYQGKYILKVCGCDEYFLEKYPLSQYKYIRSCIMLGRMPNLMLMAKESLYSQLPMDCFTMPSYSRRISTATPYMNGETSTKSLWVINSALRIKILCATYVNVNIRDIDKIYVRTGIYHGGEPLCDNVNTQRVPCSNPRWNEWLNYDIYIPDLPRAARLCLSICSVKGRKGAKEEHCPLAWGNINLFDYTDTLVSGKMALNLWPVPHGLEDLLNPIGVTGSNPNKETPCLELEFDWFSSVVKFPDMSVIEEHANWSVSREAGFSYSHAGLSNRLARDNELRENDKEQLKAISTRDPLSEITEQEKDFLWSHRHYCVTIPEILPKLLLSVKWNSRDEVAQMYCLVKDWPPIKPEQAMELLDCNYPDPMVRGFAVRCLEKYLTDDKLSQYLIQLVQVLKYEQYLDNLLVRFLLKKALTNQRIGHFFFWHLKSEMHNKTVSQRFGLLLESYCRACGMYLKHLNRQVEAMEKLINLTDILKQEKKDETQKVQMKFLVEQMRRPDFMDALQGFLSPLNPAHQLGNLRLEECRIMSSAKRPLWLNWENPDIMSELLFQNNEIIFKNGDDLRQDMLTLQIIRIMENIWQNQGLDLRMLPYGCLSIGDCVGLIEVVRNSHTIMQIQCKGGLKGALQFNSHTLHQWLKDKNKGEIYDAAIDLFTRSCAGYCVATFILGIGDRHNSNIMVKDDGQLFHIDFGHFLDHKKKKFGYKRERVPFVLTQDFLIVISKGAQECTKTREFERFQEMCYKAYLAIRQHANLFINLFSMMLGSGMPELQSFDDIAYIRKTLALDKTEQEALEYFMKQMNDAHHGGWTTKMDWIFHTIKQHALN
How it was run: (§2)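 Fluorescence-polarization competition readout: after 30–60 min of PIP2/ATP turnover in 1% DMSO, a stop mix with GST-GRP (70 nM) and red probe (10 nM) was added.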

[4] = target: T2, PI3K (Homo sapiens, UniProt P48736); test: Fluorescence polarization assay for PI3K; assay type: biochemical; conditions: PI3 Kinase γ; read-out: PI3 Kinase γ IC50
T2 construct: PI3 Kinase γ IC50; other: PI3 Kinase γ; other: PI3 Kinase γ isoform, fluorescence polarization
T2 sequence (P48736 whole entry, canonical isoform): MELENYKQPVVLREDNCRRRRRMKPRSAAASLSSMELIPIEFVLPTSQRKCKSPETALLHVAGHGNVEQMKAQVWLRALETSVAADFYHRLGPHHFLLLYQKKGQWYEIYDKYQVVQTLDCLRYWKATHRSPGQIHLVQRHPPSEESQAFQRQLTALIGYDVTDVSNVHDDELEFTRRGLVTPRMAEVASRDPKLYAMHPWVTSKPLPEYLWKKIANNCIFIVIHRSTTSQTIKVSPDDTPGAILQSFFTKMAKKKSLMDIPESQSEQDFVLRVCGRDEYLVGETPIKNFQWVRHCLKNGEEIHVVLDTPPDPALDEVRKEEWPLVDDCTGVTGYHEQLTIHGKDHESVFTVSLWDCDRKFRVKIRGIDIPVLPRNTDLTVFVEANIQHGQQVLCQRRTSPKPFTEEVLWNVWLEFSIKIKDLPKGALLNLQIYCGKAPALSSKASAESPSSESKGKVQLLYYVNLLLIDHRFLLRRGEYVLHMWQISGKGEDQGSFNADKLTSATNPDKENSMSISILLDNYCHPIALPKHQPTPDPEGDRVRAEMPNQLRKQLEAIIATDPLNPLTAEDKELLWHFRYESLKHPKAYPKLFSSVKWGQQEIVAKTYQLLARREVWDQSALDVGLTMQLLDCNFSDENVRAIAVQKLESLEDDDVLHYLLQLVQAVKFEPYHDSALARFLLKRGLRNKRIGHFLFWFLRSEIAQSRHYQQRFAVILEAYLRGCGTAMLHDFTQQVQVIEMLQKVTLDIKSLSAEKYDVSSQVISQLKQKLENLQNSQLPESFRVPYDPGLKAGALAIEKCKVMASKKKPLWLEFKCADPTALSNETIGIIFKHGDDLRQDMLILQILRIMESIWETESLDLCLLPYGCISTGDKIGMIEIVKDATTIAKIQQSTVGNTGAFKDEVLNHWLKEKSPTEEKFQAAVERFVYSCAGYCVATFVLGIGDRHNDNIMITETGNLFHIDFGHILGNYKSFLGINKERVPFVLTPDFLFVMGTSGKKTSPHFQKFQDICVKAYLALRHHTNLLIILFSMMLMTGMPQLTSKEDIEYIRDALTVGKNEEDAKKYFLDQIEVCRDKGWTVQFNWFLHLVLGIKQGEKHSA
How it was run: as §2

[5] = target: T3, Human mTOR (FLAG-TOR) (Homo sapiens, UniProt P42345); test: Human mTOR kinase assay with purified enzyme, DELFIA format; assay type: biochemical
T3 construct: FLAG
How it was run: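 DELFIA readout: Eu-anti-P(T389)-S6K antibody (40 ng/mL, 1 h) on captured His6-S6K from the stopped reaction. Kinase step used purified FLAG-tagged human mTOR with test compound in HEPES (pH 7.4)/MnCl2/DTT buffer, 2 h at room temperature (linear 1–6 h), terminated by EDTA/EGTA.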

SMILES | IC50 [2] [nM] | IC50 [3] [nM] | IC50 [4] [nM] | IC50 [5] [nM] | IC50 [1] [nM]
CCNC(=O)Nc1ccc(-c2nc(N3CC4CCC(C3)O4)c3cnn(C(C)(C)C)c3n2)cc1 [Example 94] | 50 | 804 | > 10000 | 0.51 | 490
CC(C)(C)n1ncc2c(N3CC4CCC(C3)O4)nc(-c3ccc(NC(=O)NC4CC4)cc3)nc21 [Example 96] | 1700 | 1140 | > 10000 | 0.4 | > 60000
CC(C)(C)n1ncc2c(N3CC4CCC(C3)O4)nc(-c3ccc(NC(=O)OCCO)cc3)nc21 [Example 98] | 90 | 1420 | > 10000 | 0.98 | 620
CC(C)(C)n1ncc2c(N3CC4CCC(C3)O4)nc(-c3ccc(NC(=O)Nc4ccccc4)cc3)nc21 [Example 99] | 68 | 130 | 577 | 1.8 | 280
Oc1cccc(-c2nc(N3CC4CCC(C3)O4)c3cnn(-c4ccccc4)c3n2)c1 [Example 102, 3-[4-(8-oxa-3-azabicyclo[3.2.1]oct-3-yl)-1-phenyl-1H-pyrazolo[3,4-d]pyrimidin-6-yl]phenol] | 1300 | 1170 | 7820 | 16 | 5000
CCOC(=O)N1CCC(n2ncc3c(N4CC5CCC(C4)O5)nc(-c4ccc(NC(=O)NC5CCNCC5)cc4)nc32)CC1 [Example 103, ethyl 4-[4-(8-oxa-3-azabicyclo[3.2.1]oct-3-yl)-6-{4-[(piperidin-4-ylcarbamoyl)amino]phenyl}-1H-pyrazolo[3,4-d]pyrimidin-1-yl]piperidine-1-carboxylate] | 5000 | 874 | 1100 | 6.8 | 11000
CNC(=O)Nc1ccc(-c2nc(N3CC4CCC(C3)O4)c3cnn(C4CCC(O)CC4)c3n2)cc1 (stereo not shown) [Example 107, 1-(4-(4-(8-oxa-3-azabicyclo[3.2.1]octan-3-yl)-1-(4-hydroxycyclohexyl)-1H-pyrazolo[3,4-d]pyrimidin-6-yl)phenyl)-3-methylurea] | 48 | 1310 | 5000 | 0.24 | 190
CCOC(=O)Nc1ccc(-c2nc(N3CC4CCC(C3)O4)c3cnn(C4CCN(C(=O)OC)CC4)c3n2)cc1 [Example 111, methyl 4-[6-{4-[(ethoxycarbonyl)amino]phenyl}-4-(8-oxa-3-azabicyclo[3.2.1]oct-3-yl)-1H-pyrazolo[3,4-d]pyrimidin-1-yl]piperidine-1-carboxylate] | 700 | 3340 | 12000 | 8.5 | 6000
COCCOC(=O)Nc1ccc(-c2nc(N3CC4CCC(C3)O4)c3cnn(C4CCN(C(=O)OC)CC4)c3n2)cc1 [Example 113, methyl 4-[6-(4-{[(2-methoxyethoxy)carbonyl]amino}phenyl)-4-(8-oxa-3-azabicyclo[3.2.1]oct-3-yl)-1H-pyrazolo[3,4-d]pyrimidin-1-yl]piperidine-1-carboxylate] | 2700 | 7510 | > 10000 | 225 | 30000
COC(=O)N1CCC(n2ncc3c(N4CC5CCC(C4)O5)nc(-c4ccc(NC(=O)OCCN)cc4)nc32)CC1 [Example 114, methyl 4-[6-(4-{[(2-aminoethoxy)carbonyl]amino}phenyl)-4-(8-oxa-3-azabicyclo[3.2.1]oct-3-yl)-1H-pyrazolo[3,4-d]pyrimidin-1-yl]piperidine-1-carboxylate] | 4000 | 1430 | 7480 | 36.5 | 6000
COC(=O)N1CCC(n2ncc3c(N4CC5CCC(C4)O5)nc(-c4ccc(NC(=O)OCCN(C)C)cc4)nc32)CC1 [Example 115, methyl 4-{6-[4-({[2-(dimethylamino)ethoxy]carbonyl}amino)phenyl]-4-(8-oxa-3-azabicyclo[3.2.1]oct-3-yl)-1H-pyrazolo[3,4-d]pyrimidin-1-yl}piperidine-1-carboxylate] | 1600 | 5060 | 8930 | 360 | 4600
COC(=O)N1CCC(n2ncc3c(N4CC5CCC(C4)O5)nc(-c4ccc(NC(=O)OCCN5CCCC5)cc4)nc32)CC1 [Example 116, methyl 4-[4-(8-oxa-3-azabicyclo[3.2.1]oct-3-yl)-6-(4-{[(2-pyrrolidin-1-ylethoxy)carbonyl]amino}phenyl)-1H-pyrazolo[3,4-d]pyrimidin-1-yl]piperidine-1-carboxylate] | 1700 | 2660 | 6740 | 335 | 4000
COC(=O)N1CCC(n2ncc3c(N4CC5CCC(C4)O5)nc(-c4ccc(NC(=O)OCCN5CCOCC5)cc4)nc32)CC1 [Example 117, methyl 4-[6-(4-{[(2-morpholin-4-ylethoxy)carbonyl]amino}phenyl)-4-(8-oxa-3-azabicyclo[3.2.1]oct-3-yl)-1H-pyrazolo[3,4-d]pyrimidin-1-yl]piperidine-1-carboxylate] | 4400 | > 10000 | > 10000 | > 800 | 22000
COC(=O)N1CCC(n2ncc3c(N4CC5CCC(C4)O5)nc(-c4ccc(NC(=O)OCCN5CCN(C)CC5)cc4)nc32)CC1 [Example 118, methyl 4-{6-[4-({[2-(4-methylpiperazin-1-yl)ethoxy]carbonyl}amino)phenyl]-4-(8-oxa-3-azabicyclo[3.2.1]oct-3-yl)-1H-pyrazolo[3,4-d]pyrimidin-1-yl}piperidine-1-carboxylate] | 2800 | 8040 | > 10000 | > 800 | 4700
COC(=O)Nc1ccc(-c2nc(N3CC4CCC(C3)O4)c3cnn(C4CCN(C(=O)OC)CC4)c3n2)cc1 [Example 119, methyl 4-[6-{4-[(methoxycarbonyl)amino]phenyl}-4-(8-oxa-3-azabicyclo[3.2.1]oct-3-yl)-1H-pyrazolo[3,4-d]pyrimidin-1-yl]piperidine-1-carboxylate] | 180 | 4670 | > 10000 | 3.6 | 1200
COC(=O)N1CCC(n2ncc3c(N4CC5CCC(C4)O5)nc(-c4ccc(N)cc4)nc32)CC1 [Example 120, methyl 4-[6-(4-aminophenyl)-4-(8-oxa-3-azabicyclo[3.2.1]oct-3-yl)-1H-pyrazolo[3,4-d]pyrimidin-1-yl]piperidine-1-carboxylate] | 950 | 7920 | > 10000 | 69 | 6900

Now those with a lower IC50 [2], led by results:

IC50 [2] [nM] | IC50 [3] [nM] | IC50 [4] [nM] | IC50 [5] [nM] | SMILES | IC50 [1] [nM]
17 | 1060 | > 10000 | 0.61 | CC(C)(C)n1ncc2c(N3CC4CCC(C3)O4)nc(-c3ccc(NC(=O)NCCF)cc3)nc21 [Example 95] | 280
20 | 282 | 9500 | 0.34 | CC(C)(C)n1ncc2c(N3CC4CCC(C3)O4)nc(-c3ccc(NC(=O)NCCO)cc3)nc21 [Example 97] | 180
20 | 149 | 794 | 0.63 | CC(C)(C)n1ncc2c(N3CC4CCC(C3)O4)nc(-c3ccc(NC(=O)Nc4cccnc4)cc3)nc21 [Example 100] | 130
19 | 178 | 727 | 0.53 | CC(C)(C)n1ncc2c(N3CC4CCC(C3)O4)nc(-c3ccc(NC(=O)Nc4ccncc4)cc3)nc21 [Example 101] | 110
32 | 1300 | > 10000 | 0.22 | CNC(=O)Nc1ccc(-c2nc(N3CC4CCC(C3)O4)c3cnn(C4CCC(=O)CC4)c3n2)cc1 [Example 106, 1-(4-(4-(8-oxa-3-azabicyclo[3.2.1]octan-3-yl)-1-(4-oxocyclohexyl)-1H-pyrazolo[3,4-d]pyrimidin-6-yl)phenyl)-3-methylurea] | 110
40 | 1260 | > 10000 | 0.75 | COC(=O)N1CCC(n2ncc3c(N4CC5CCC(C4)O5)nc(-c4ccc(NC(=O)OCCO)cc4)nc32)CC1 [Example 112, methyl 4-[6-(4-{[(2-hydroxyethoxy)carbonyl]amino}phenyl)-4-(8-oxa-3-azabicyclo[3.2.1]oct-3-yl)-1H-pyrazolo[3,4-d]pyrimidin-1-yl]piperidine-1-carboxylate] | 1050
2 | 7650 | > 10000 | 0.5 | O=C(Nc1ccc(-c2nc(N3CC4CCC(C3)O4)c3cnn(C4CCC5(CC4)OCCO5)c3n2)cc1)OCCO [Example 121, 2-hydroxyethyl {4-[1-(1,4-dioxaspiro[4.5]dec-8-yl)-4-(8-oxa-3-azabicyclo[3.2.1]oct-3-yl)-1H-pyrazolo[3,4-d]pyrimidin-6-yl]phenyl}carbamate] | 63
